Patent US9617267B2, “Compounds and methods for kinase modulation, and indications therefor” (Plexxikon Inc., priority 2009, dated 2017)

Key:
[1] = biological target: CYP3A4 (Homo sapiens (Human), UniProt P08684); assay: CYP enzyme inhibition, fluorescent substrate BFC; details: human, CYP3A4 enzyme (BD Biosciences), probe BFC
In short: (§1)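 Human CYP activity was followed by the fluorescence of the metabolized product of a known substrate, which falls as metabolism is inhibited. Compounds from 100 mM DMSO stocks were serially diluted 1:1 over 10 points in co-factor mix and preincubated 10 min at 37 °C. IC50 was fitted from signal versus concentration.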

[2] = biological target: CYP2C9 (Homo sapiens (Human), UniProt P11712); assay: CYP enzyme inhibition, fluorescent substrate (MFC); details: human, CYP2C9 enzyme (BD Biosciences), probe MFC
In short: as §1

[3] = biological target: CYP2C19 (Homo sapiens (Human), UniProt P33261); assay: CYP enzyme inhibition, fluorescent substrate (CEC); details: human, CYP2C19 enzyme (BD Biosciences), probe CEC
In short: as §1

[4] = biological target: CYP3A4(BQ) (Homo sapiens (Human), UniProt P08684); assay: CYP enzyme inhibition, fluorescent substrate BQ
In short: as §1

[5] = biological target: CYP1A2 (Homo sapiens (Human), UniProt P05177); assay: CYP enzyme inhibition, fluorescent substrate (CEC); details: human, CYP1A2 enzyme (BD Biosciences), probe CEC
In short: (§2)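 Ten-point 1:1 compound dilutions in NADPH-regenerating cofactor mix, pre-incubated 10 min at 37 °C before enzyme/substrate addition: CYP1A2 0.5 pmol with 5 μM CEC, 15 min, 409 ex/460 em; CYP2D6 1.5 pmol with 1.5 μM AMMC, 30 min, 409 ex/530 em. IC50 from fluorescent product vs concentration.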

[6] = biological target: B-Raf V600E (Homo sapiens (Human), UniProt P15056, V600E); assay: B-Raf V600E kinase activity biochemical assay (AlphaScreen, biotin-MEK1 phosphorylation)
In short: (§3)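 Biotin-MEK1 phosphorylation measured after 45 min kinase reaction at RT with 100 μM ATP final; compounds tested at 8 points from 0.1 mM DMSO stock.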

[7] = biological target: c-Raf-1 (Homo sapiens, UniProt P04049); assay: c-Raf-1 kinase activity biochemical assay (AlphaScreen, biotin-MEK1 phosphorylation)
In short: as §3

[8] = biological target: CYP2D6 (Homo sapiens (Human), UniProt P10635); assay: CYP enzyme inhibition, fluorescent substrate (AMMC); assay type: in vitro ADME; details: human, CYP2D6 enzyme (BD Biosciences), probe AMMC, read-out: Cyp IC50 2D6
In short: as §2

[9] = tested on: B-Raf; assay: B-Raf kinase activity biochemical assay (AlphaScreen, biotin-MEK1 phosphorylation)
In short: as §3

[10] = biological target: B-Raf (Homo sapiens (Human), UniProt P15056); assay: as above; details: B-Raf
In short: as §3

Chain of B-Raf V600E (P15056 whole entry V600E): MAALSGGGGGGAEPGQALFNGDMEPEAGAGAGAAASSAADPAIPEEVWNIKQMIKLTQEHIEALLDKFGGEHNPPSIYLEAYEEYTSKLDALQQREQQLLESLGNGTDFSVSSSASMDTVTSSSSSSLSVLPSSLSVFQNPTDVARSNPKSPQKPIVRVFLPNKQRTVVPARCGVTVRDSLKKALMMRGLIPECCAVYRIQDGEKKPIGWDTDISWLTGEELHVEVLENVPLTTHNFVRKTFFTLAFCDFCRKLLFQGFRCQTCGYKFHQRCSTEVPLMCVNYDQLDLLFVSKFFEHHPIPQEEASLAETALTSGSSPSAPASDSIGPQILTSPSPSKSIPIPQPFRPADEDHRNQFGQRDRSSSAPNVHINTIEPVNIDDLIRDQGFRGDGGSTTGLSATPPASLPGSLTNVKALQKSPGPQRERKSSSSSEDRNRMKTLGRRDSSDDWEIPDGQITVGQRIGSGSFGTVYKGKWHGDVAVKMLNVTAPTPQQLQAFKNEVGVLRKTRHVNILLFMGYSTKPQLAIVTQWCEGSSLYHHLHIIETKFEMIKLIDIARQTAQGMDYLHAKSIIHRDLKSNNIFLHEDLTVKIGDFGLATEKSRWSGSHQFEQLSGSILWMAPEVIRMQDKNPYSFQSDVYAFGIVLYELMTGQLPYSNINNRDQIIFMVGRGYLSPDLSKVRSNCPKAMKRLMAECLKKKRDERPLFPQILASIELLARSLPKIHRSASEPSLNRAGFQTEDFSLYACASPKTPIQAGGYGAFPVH
Chain of CYP3A4 (P08684 whole entry): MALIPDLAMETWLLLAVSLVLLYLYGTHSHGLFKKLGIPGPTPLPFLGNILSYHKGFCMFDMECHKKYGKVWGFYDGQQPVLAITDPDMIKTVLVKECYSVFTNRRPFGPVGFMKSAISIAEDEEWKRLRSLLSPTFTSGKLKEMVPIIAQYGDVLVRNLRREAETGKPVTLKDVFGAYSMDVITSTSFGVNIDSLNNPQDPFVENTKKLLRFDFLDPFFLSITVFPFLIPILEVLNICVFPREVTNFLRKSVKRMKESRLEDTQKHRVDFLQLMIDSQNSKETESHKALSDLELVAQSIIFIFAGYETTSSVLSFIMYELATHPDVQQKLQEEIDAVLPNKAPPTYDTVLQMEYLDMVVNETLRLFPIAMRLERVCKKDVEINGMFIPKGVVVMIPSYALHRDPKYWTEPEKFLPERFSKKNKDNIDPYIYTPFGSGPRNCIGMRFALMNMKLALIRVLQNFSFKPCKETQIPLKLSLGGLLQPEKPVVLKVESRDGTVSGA
Chain of CYP3A4(BQ) (P08684 whole entry): as above
Chain of B-Raf (Homo sapiens (Human), UniProt P15056) (P15056 whole entry): as the sequence (P15056 whole entry V600E) above, with E600V counted along it
Chain of c-Raf-1 (P04049 whole entry, looked up): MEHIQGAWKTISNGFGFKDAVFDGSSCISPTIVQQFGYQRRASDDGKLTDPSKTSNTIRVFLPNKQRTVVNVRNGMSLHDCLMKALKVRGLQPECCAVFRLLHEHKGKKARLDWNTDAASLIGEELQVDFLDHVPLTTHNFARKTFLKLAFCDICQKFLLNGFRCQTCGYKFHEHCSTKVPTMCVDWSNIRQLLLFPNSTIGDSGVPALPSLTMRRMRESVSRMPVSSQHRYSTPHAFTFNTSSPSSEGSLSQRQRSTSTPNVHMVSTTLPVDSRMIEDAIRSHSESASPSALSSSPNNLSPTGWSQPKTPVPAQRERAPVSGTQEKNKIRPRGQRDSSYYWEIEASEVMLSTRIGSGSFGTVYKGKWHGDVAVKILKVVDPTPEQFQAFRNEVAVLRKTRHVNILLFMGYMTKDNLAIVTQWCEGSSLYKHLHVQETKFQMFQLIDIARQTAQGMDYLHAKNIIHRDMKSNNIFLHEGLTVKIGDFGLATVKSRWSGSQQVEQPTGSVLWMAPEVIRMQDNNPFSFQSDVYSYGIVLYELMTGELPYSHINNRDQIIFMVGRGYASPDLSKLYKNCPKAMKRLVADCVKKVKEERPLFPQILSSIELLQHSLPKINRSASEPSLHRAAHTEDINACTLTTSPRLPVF
Chain of CYP1A2 (P05177 whole entry): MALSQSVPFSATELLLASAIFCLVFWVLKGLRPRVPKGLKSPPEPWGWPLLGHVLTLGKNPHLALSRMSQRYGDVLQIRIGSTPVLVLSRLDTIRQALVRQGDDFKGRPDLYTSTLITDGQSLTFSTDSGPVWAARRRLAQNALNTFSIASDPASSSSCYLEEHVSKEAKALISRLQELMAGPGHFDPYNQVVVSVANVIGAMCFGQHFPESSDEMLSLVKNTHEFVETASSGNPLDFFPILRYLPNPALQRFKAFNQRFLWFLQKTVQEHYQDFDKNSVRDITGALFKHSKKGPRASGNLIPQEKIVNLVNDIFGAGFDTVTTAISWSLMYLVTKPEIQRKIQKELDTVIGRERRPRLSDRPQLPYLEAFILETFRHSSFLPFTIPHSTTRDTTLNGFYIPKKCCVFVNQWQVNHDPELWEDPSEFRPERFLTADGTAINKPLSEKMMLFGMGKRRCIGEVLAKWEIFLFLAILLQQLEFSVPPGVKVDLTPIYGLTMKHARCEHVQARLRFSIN
Chain of CYP2C9 (P11712 whole entry): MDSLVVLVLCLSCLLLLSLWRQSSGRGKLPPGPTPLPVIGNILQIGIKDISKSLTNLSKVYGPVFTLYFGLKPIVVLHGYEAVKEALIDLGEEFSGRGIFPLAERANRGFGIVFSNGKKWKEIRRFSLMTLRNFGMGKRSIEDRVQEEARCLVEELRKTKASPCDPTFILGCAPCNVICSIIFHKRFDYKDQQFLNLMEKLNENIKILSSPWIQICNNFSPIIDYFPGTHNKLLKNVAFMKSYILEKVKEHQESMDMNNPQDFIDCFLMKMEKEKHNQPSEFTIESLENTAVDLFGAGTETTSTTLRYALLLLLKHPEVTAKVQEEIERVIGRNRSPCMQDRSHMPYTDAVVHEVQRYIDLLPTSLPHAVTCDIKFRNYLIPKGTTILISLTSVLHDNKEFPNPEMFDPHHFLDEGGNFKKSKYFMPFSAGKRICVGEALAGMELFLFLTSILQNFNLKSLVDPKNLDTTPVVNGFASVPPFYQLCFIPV
Chain of CYP2D6 (P10635 whole entry): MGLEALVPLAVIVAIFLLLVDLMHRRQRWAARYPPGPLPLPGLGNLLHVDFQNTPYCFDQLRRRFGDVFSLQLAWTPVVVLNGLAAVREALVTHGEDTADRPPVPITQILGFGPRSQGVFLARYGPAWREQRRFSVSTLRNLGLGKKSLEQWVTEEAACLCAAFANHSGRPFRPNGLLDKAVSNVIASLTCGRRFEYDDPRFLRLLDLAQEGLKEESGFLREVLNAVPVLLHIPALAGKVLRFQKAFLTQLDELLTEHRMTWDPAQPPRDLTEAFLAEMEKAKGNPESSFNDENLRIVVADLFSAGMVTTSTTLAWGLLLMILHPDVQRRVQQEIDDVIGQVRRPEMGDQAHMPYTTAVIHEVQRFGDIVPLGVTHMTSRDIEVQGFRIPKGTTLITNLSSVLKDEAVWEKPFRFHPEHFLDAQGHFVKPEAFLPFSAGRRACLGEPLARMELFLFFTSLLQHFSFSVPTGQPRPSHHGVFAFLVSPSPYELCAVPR
Chain of CYP2C19 (P33261 whole entry): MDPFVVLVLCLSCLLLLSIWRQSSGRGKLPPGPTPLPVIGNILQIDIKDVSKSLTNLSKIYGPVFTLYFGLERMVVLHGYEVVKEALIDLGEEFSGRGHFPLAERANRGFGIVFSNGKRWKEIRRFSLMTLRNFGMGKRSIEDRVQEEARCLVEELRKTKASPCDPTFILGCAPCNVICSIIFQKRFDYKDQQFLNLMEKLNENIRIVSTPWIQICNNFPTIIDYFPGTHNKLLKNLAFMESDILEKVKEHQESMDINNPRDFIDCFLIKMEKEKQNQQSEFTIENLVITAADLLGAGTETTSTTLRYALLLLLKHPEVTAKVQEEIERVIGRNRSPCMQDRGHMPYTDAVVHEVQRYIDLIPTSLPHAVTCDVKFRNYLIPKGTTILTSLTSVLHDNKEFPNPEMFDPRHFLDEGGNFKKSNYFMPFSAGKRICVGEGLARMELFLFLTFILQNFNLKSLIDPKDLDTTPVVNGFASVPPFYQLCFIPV

## CCCS(=O)(=O)Nc1ccc(F)c(C(=O)c2c[nH]c3nccc(NC4CCCC4)c23)c1F [P-2012, Propane-1-sulfonic acid [3-(4-cyclopentylamino-1H-pyrrolo[2,3-b]pyridine-3-carbonyl)-2,4-difluoro-phenyl]-amide]
[1]
  IC50 at 30 min: > 10 µM
[2]
  IC50 at 45 min: > 10 µM
[3]
  IC50 at 30 min: > 10 µM
[4]
  IC50: > 10 µM
[5]
  IC50 at 15 min: > 10 µM
[6]; B-Raf V600E
  IC50: < 0.1 µM
[6]; ratio of IC50 B-Raf V600E / c-Raf-1
  Biochemical activity ratio V600E/C: 0.1-10
[7]
  IC50: < 0.1 µM
[8]
  IC50 at 30 min: > 10 µM
[9]; ratio of IC50 B-Raf / B-Raf V600E
  Biochemical activity ratio B/V600E: 0.1-10
[9]; ratio of IC50 B-Raf / c-Raf-1
  Biochemical activity ratio B/C: >10
[10]
  IC50: > 0.1 µM
